# Assay results from paper PMC5681660, “Reduced hepatitis B and D viral entry using clinically applied drugs as novel inhibitors of the bile acid transporter NTCP” (Scientific Reports, 2017).
# Where a name gives a salt, the structure may show the parent alone. Read-outs that look alike come from different tables or passages of the source.
# Assays:
# [1] = molecular target: T1, human NTCP (Homo sapiens, UniProt Q14973); test: Screening fluorescent competitive Myrcludex B-FITC binding assay (96-well, 10 µM drug)
# T1 sequence (Q14973 1-349): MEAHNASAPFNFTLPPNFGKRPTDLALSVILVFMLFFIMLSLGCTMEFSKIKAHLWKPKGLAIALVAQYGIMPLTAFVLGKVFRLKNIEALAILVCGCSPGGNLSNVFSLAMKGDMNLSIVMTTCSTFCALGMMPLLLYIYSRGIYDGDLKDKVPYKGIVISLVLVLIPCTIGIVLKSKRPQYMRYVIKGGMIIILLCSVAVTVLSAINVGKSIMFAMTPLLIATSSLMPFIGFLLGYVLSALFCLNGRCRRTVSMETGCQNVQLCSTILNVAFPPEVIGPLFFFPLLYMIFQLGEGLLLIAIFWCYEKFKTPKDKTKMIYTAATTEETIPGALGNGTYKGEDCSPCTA
# [2] = molecular target: T1, human NTCP; test: Screening taurocholate uptake assay (96-well, [14C]taurocholate, 10 µM drug)
# [3] = Prestwick library screen, Myrcludex B-FITC binding, 10 µM drug
# [4] = Prestwick library screen, taurocholate uptake, 10 µM drug
# [5] = ranking score beside the functional and binding assay B-scores of the screen
# [6] = Prestwick library screen, 10 µM drug, B-score of Myrcludex B-FITC binding
# [7] = Prestwick library screen, 10 µM drug, B-score of taurocholate uptake
# [8] = combined ranking from functional and binding assay B-scores
# [9] = screen, 10 µM drug, Myrcludex B-FITC binding
# [10] = combined ranking from functional and binding screening assays
# [11] = screen, 10 µM drug, taurocholate uptake
# [12] = ranking over the functional and the binding screening assay
# [13] = screening taurocholate uptake, 10 µM drug
# [14] = combined ranking of functional and binding screening assays
# [15] = screening taurocholate uptake, 10 µM drug, B-score
molecule,measurement,setting,value
CC[C@@H](C(N)=O)N1CCCC1=O [Levetiracetam],B-score binding assay,[1]; [3],0.117
same,B-score functional assay,[2]; [4],-0.058
same,Ranking score,[2]; [5],657.267
COc1ccc(OC)c(C(O)CNC(=O)CN)c1 (centres unmarked) [Midodrine hydrochloride],B-score binding assay,[1]; [3],2.033
same,B-score functional assay,[2]; [4],-0.28
same,Ranking score,[2]; [5],735.356
Cc1cn([C@H]2C=C[C@@H](CO)O2)c(=O)[nH]c1=O [Stavudine],B-score binding assay,[1]; [6],0.431
same,B-score functional assay,[2]; [7],0.865
same,Ranking score,[2]; [8],957.909
CN1CCN2c3ccccc3Cc3ccccc3C2C1.Cl (centres unmarked) [Mianserine hydrochloride],B-score binding assay,[1]; [3],0.761
same,B-score functional assay,[2]; [4],0.041
same,Ranking score,[2]; [5],825.955
CCN(CC)CCNC(=O)c1cc(S(C)(=O)=O)ccc1OC [Tiapride hydrochloride],B-score binding assay,[1]; [6],0.4
same,B-score functional assay,[2]; [7],1.625
same,Ranking score,[2]; [8],1010.78
CC(=O)OCC(=O)[C@@]12N=C(C)O[C@@H]1C[C@H]1[C@@H]3CCC4=CC(=O)C=C[C@]4(C)[C@H]3[C@@H](O)C[C@@]12C [Deflazacort],B-score binding assay,[1]; [9],-0.898
same,Ranking score,[2]; [10],446.866
same,B-score functional assay,[2]; [11],0.131
COc1cccc(N(C)C(=S)Oc2ccc3c(c2)CCCC3)n1 [Liranaftate],B-score binding assay,[1]; [6],0.615
same,B-score functional assay,[2]; [7],0.374
same,Ranking score,[2]; [8],904.804
CO/N=C(\C(=O)N[C@@H]1C(=O)N2C(C(=O)O)=C(COC(C)=O)CS[C@H]12)c1csc(N)n1 [Cefotaxime sodium salt],B-score binding assay,[1]; [9],-1.895
same,Ranking score,[2]; [10],382.157
same,B-score functional assay,[2]; [11],3.35
NCCCCCC(=O)O [Aminocaproic acid],B-score binding assay,[1]; [6],1.053
same,B-score functional assay,[2]; [7],1.656
same,Ranking score,[2]; [8],1108.16
NS(=O)(=O)c1cc2c(cc1Cl)N=CNS2(=O)=O [Chlorothiazide],B-score binding assay,[1]; [6],0.263
same,B-score functional assay,[2]; [7],1.41
same,Ranking score,[2]; [8],967.179
CN1CCOC(c2ccccc2)c2ccccc2C1 (centres unmarked) [Nefopam hydrochloride],B-score binding assay,[1]; [6],0.293
same,B-score functional assay,[2]; [7],0.705
same,Ranking score,[2]; [8],906.685
COc1ccc(CC2c3cc(OC)c(OC)cc3CC[N+]2(C)CCC(=O)OCCCCCOC(=O)CC[N+]2(C)CCc3cc(OC)c(OC)cc3C2Cc2ccc(OC)c(OC)c2)cc1OC (centres unmarked) [Atracurium besylate],B-score binding assay,[1]; [6],0.189
same,B-score functional assay,[2]; [7],2.141
same,Ranking score,[2]; [8],978.724
C[C@@H]1CC[C@H]2[C@@H](C)C(=O)O[C@@H]3O[C@@]4(C)CC[C@@H]1[C@]32OO4 [Artemisinin],B-score binding assay,[1]; [3],-0.138
same,B-score functional assay,[2]; [4],0.234
same,Ranking score,[2]; [5],655.672
NC(=O)C(c1ccccc1)(c1ccccc1)[C@@H]1CCN(CCc2ccc3c(c2)CCO3)C1 [Darifenacin hydrobromide],B-score binding assay,[1],0.023
same,B-score functional assay,[2],2.058
same,Ranking score,[2],899.12
C[C@]12CCC(=O)C=C1C=C[C@@H]1[C@@H]2CC[C@@]2(C)[C@H]1CC[C@@]21CCC(=O)O1 [Canrenone],B-score binding assay,[1]; [9],-0.43
same,Ranking score,[2]; [10],379.419
same,B-score functional assay,[2]; [11],-0.551
CCCC(CCC)C(=O)O [Valproic acid],B-score binding assay,[1]; [6],1.515
same,B-score functional assay,[2]; [7],0.92
same,Ranking score,[2]; [8],1093.47
C#C[C@]1(OC(C)=O)CC[C@H]2[C@@H]3CCC4=CC(=NO)CC[C@@H]4[C@H]3CC[C@@]21CC (mixture of isomers) [Norgestimate],Ranking score,[2]; [12],95.4987
same,B-score functional assay,[2]; [13],-2.463
CC[C@@]1([C@H]2O[C@H]([C@H]3O[C@@](O)(CO)[C@H](C)C[C@@H]3C)C[C@H]2C)CC[C@H]([C@@]2(C)CC[C@]3(C[C@H](O)[C@@H](C)[C@@H]([C@H](C)[C@H](OC)[C@@H](C)C(=O)[O-])O3)O2)O1.[Na+] [Monensin sodium salt],Ranking score,[2]; [12],257.93
same,B-score functional assay,[2]; [13],-1.407
CC(N)CCCC(C)(C)O (centres unmarked) [Heptaminol hydrochloride],Ranking score,[2]; [14],1189.85
same,B-score functional assay,[2]; [15],2.111
CCC(=O)O[C@]1(C(=O)CCl)[C@@H](C)C[C@H]2[C@@H]3CCC4=CC(=O)C=C[C@]4(C)[C@@]3(F)[C@@H](O)C[C@@]21C [Clobetasol propionate],Ranking score,[2]; [12],265.371
same,B-score functional assay,[2]; [13],-0.819
NC(=O)c1ccc[n+]([C@@H]2O[C@H](COP(=O)([O-])OP(=O)(O)OC[C@H]3O[C@@H](n4cnc5c(N)ncnc54)[C@H](O)[C@@H]3O)[C@@H](O)[C@H]2O)c1 [Nadide],Ranking score,[2]; [14],475.971
same,B-score functional assay,[2]; [13],0.371
COc1cc2ncnc(Nc3ccc(F)c(Cl)c3)c2cc1OCCCN1CCOCC1 [Gefitinib],Ranking score,[2]; [14],629.087
same,B-score functional assay,[2]; [13],0.784
(S)-(-)-Cycloserine,Ranking score,[2]; [12],89.398
same,B-score functional assay,[2]; [13],-1.227
C=C1CC[C@@]2(O)[C@H]3Cc4ccc(O)c5c4[C@@]2(CCN3CC2CC2)[C@H]1O5 [Nalmefene hydrochloride],Ranking score,[2]; [14],642.564
same,B-score functional assay,[2]; [13],0.055
O=C(C1CCCCC1)N1CC(=O)N2CCc3ccccc3C2C1 (centres unmarked) [Praziquantel],Ranking score,[2]; [12],262.237
same,B-score functional assay,[2]; [13],-0.749
COC(c1ccccc1)(c1ccccc1)[C@H](Oc1nc(C)cc(C)n1)C(=O)O [Ambrisentan],Ranking score,[2]; [14],629.311
same,B-score functional assay,[2]; [13],-0.389
Cc1cccc(C)c1OCC(C)N (centres unmarked) [Mexiletine hydrochloride],Ranking score,[2]; [14],487.63
same,B-score functional assay,[2]; [13],-0.898
CN(CCOc1ccc(CC2SC(=O)NC2=O)cc1)c1ccccn1.Cl (centres unmarked) [Rosiglitazone Hydrochloride],Ranking score,[2]; [12],31.1127
same,B-score functional assay,[2]; [13],-7.292
CN(C)C(=O)Oc1ccc[n+](C)c1.[I-] [Pyridostigmine iodide],Ranking score,[2]; [14],1177.01
same,B-score functional assay,[2]; [15],1.154
O=c1[nH]c(=O)n(C2CCCO2)cc1F (centres unmarked) [Tegafur],Ranking score,[2]; [14],518.446
same,B-score functional assay,[2]; [13],-0.939
CCCc1ncc(C[n+]2ccccc2C)c(N)n1 [Amprolium hydrochloride],Ranking score,[2]; [12],254.142
same,B-score functional assay,[2]; [13],-0.209
CC(=O)OCC(=O)[C@@]12OC3(CCCC3)O[C@@H]1C[C@H]1[C@@H]3CCC4=CC(=O)C=C[C@]4(C)[C@@]3(F)[C@@H](O)C[C@@]12C [Amcinonide],Ranking score,[2]; [14],530.494
same,B-score functional assay,[2]; [13],0.343
C#Cc1cccc(Nc2ncnc3cc(OCCOC)c(OCCOC)cc23)c1 [Erlotinib],Ranking score,[2]; [12],239.996
same,B-score functional assay,[2]; [13],-3.126
CN1CCN(CCCN2c3ccccc3Sc3ccc(Cl)cc32)CC1 [Prochlorperazine dimaleate],Ranking score,[2]; [12],89.1291
same,B-score functional assay,[2]; [13],-4.76
CC(C)(C)NCC(O)c1cc(Cl)c(N)c(Cl)c1 (centres unmarked) [Clenbuterol hydrochloride],Ranking score,[2]; [14],497.397
same,B-score functional assay,[2]; [13],-0.705
CN[C@@H]1[C@H](O)[C@H](NC)[C@H]2O[C@@]3(O)C(=O)C[C@@H](C)O[C@H]3O[C@@H]2[C@H]1O.Cl.Cl [Spectinomycin dihydrochloride],Ranking score,[2]; [12],126.98
same,B-score functional assay,[2]; [13],-0.865
O=c1[nH]c2ccccc2n1C1CCN(CCCC(c2ccc(F)cc2)c2ccc(F)cc2)CC1 [Pimozide],Ranking score,[2]; [12],234.734
same,B-score functional assay,[2]; [13],-2.417
CCOC(=O)c1ccc(N)cc1 [Benzocaine],Ranking score,[2]; [12],153.542
same,B-score functional assay,[2]; [13],-1.326
